According to US7662810B2, “2-arylmethylazetidine carbapenem derivatives and preparation thereof” (Korea Research Institute of Chemical Technology, priority 2004, dated 2010):
≈ marks a conversion by molar mass, not a printed value. Read-outs that look alike come from different tables or passages of the source.

Experiments:
Escherichia coli 078 = experiment: Measurement of Minimum Inhibitory Concentration (MIC); type: cell-based
Procedure, shortened: (§1)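 MIC by agar dilution: ~10^4 CFU/spot, Müller-Hinton agar, twofold compound series 0.002–100 μg/ml final, 37 °C/18 h. Pre-culture 18 h, 37 °C, shaking, Fleisch extract broth; 10% horse serum added for S. faecium.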

Escherichia coli DC 0 = experiment: as above; type: cell-based
Procedure, shortened: as §1

Escherichia coli DC 2 = experiment: as above; type: cell-based
Procedure, shortened: as §1

Escherichia coli TEM = experiment: as above; type: cell-based
Procedure, shortened: as §1

[1] = test system: Klebsiella oxytoca 1082 E; experiment: as above; type: cell-based
Procedure, shortened: as §1

[2] = test system: Salmonella typhimurium 179; experiment: as above; type: cell-based; settings: Salmonella typhimurium 179
Procedure, shortened: as §1

[3] = test system: Staphylococcus aureus 285; experiment: as above; type: cell-based
Procedure, shortened: as §1

[4] = test system: Staphylococcus aureus 503; experiment: as above; type: cell-based
Procedure, shortened: as §1

[5] = test system: Staphylococcus faecium MD 8b; experiment: as above; type: cell-based; settings: Staphylococcus faecium MD 8b
Procedure, shortened: as §1

[6] = test system: Staphylococcus pyogenes 308A; experiment: as above; type: cell-based; settings: Staphylococcus pyogenes 308A
Procedure, shortened: as §1

[7] = test system: Staphylococcus pyogenes 77A; experiment: as above; type: cell-based; settings: Staphylococcus pyogenes 77A
Procedure, shortened: as §1

Acute Toxicity Test = experiment: Acute Toxicity Test
Protocol: The acute toxicity of the compound of Example 14 was tested using several groups of ICR mice each of 10 mice.

[8] = target: T1, Dihydropeptidase-1 (DHP-1) (Sus scrofa, UniProt P22412)
T1 sequence (P22412 17-384): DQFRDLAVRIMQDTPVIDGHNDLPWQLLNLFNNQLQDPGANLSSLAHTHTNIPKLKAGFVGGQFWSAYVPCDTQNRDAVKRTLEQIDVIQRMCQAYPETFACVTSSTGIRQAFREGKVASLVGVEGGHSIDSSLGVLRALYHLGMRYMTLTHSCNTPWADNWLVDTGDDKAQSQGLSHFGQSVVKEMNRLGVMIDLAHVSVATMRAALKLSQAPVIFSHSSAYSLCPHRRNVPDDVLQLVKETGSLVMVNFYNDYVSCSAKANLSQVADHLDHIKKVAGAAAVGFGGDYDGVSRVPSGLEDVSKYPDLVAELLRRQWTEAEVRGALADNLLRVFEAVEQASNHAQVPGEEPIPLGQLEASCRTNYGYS

[9] = target: T1, Dihydropeptidase-1 (DHP-1); experiment: Sensitivity Assay Against Dihydropeptidase-1 (DHP-1); settings: pig, DHP-1 enzyme extracted from hog kidney
[10] = Staphylococcus aureus, read-out: MIC

## COc1ccc(CN2CC(SC3=C(C(=O)[O-])N4C(=O)[C@H]([C@@H](C)O)[C@H]4[C@H]3C)C2)cc1.[K+] [Exam. 14, Potassium(1R,5S,6S)-2-[1-(4-methoxybenzyl)-azetidine-3-yl-thio]-6-[(1R)-1-hydroxylethyl]-1-methylcarbapen-2-em-3-carboxylate]
Escherichia coli 078
  MIC: 0.013 µg/mL
Escherichia coli DC 0
  MIC: 0.049 µg/mL
Escherichia coli DC 2
  MIC: 0.049 µg/mL
Escherichia coli TEM; Escherichia coli TEM
  MIC: 0.195 µg/mL
[1]
  MIC: 0.098 µg/mL
[2]
  MIC: 0.098 µg/mL
[3]
  MIC: 0.098 µg/mL
[4]
  MIC: 0.025 µg/mL
[5]
  MIC: 1.563 µg/mL
[6]
  MIC: 0.002 µg/mL
[7]
  MIC: 0.002 µg/mL
Acute Toxicity Test; ICR mice, 500, 1,000 and 2,000 mg/kg intraperitoneally, 7 days
  death: no mice died
Acute Toxicity Test; ICR mice, intraperitoneally injected, observed for 7 days
  LD50: higher than 2,000 mg/kg
[8]
  T1/2 (time when the concentration of the medicament become the half): 19.88

## C[C@@H](O)[C@H]1C(=O)N2C(C(=O)O)=C(S[C@@H]3CN[C@H](C(=O)N(C)C)C3)[C@H](C)[C@H]12 [Meropenem, reference compound]
Escherichia coli 078; read-out: MIC
  MIC: 0.025 µg/mL (≈ 0.0652 µM)
Escherichia coli DC 0; DC0, read-out: MIC
  MIC: 0.025 µg/mL (≈ 0.0652 µM)
Escherichia coli DC 2
  MIC: 0.025 µg/mL (≈ 0.0652 µM)
Escherichia coli TEM; Escherichia coli
  MIC: 0.025 µg/mL (≈ 0.0652 µM)
[1]; read-out: MIC
  MIC: 0.049 µg/mL (≈ 0.128 µM)
[2]; Salmonella enterica, read-out: MIC
  MIC: 0.049 µg/mL (≈ 0.128 µM)
[3]; read-out: MIC
  MIC: 0.098 µg/mL (≈ 0.256 µM)
[4]; read-out: MIC
  MIC: 0.049 µg/mL (≈ 0.128 µM)
[5]; MD8B, read-out: MIC
  MIC: 6.25 µg/mL (≈ 16.3 µM)
[6]; [10]
  MIC: 0.007 µg/mL (≈ 0.0183 µM)
[7]; [10]
  MIC: 0.004 µg/mL (≈ 0.0104 µM)
[9]
  half-life at 500 μg/ml: 18.3 h
